This is an account of results in US12697366B2, “Thermogenic compositions and methods” (Ohio State Innovation Foundation, priority 2016, dated 2026).

One data set has as its system NCI-H23. In words: MTT cytotoxicity on NCI-H23. Type of data set: cell-based, human. On the procedure: (§1) The non-oxidized CPT-CCKK nanotube was assessed for cytotoxic efficacy against human non-small cell lung cancer (NSCLC) cell lines A549, NCI-460, and NCI-H23, which were selected according to the indications of approved CPT derivative Topotecan. […] The explanation for the cytotoxicity results could be that CPT-CCKK release active CPT in a time-dependent manner, and the entire true concentration for CPT in the cell medium is less than that of free CPT. […] It has been reported before that the GSH level in H460 was almost twice higher than that in A549. Therefore, higher concentration of GSH in H460 accelerated the breakage of the disulfide bonds within the crosslinked CPT-CCKK nanotubes, leading to faster release of active CPT and higher in vitro cytoxicity.

A further data set deals with 3T3-L1 cells. In words: LDH release cytotoxicity (CytoTox 96) in 3T3-L1 cells. Type of data set: cell-based, mouse. Conditions: different concentrations, 6 hours. On the procedure:
Non-differentiated, 90% confluent 3T3-L1 cells were incubated with different concentrations of nanoscaffolds #1, #2, or #3 for 6 hours. Cytotoxicity was measured the lactate dehydrogenase (LDH), released upon cell lysis using The CytoTox 96 assay (Promega, Cat #G1780).
In general terms: LDH in the medium is a marker of cell lysis.

The subject of the next data set is A549. The data set is described as follows: MTT cytotoxicity on A549. It counts as cell-based. Conditions: Homo sapiens. The method, then:
as §1

Another data set has as its system NCI-460. The data set is described as follows: MTT cytotoxicity on NCI-460 (H460). Type of data set: cell-based. Conditions: Homo sapiens. The method, then:
as §1

Data set [1] concerns HT-29 colorectal cancer cells. The data set is described as follows: Viability / cytotoxicity assay on HT-29 colorectal cancer cells. Type of data set: cell-based, human. To be noted: in vitro.
Data set [2] relates to Brainbow (BB) mice fed a high-fat (HF) diet. The data set is described as follows: Study 5: recombinant EFNA5 injected into iAb fat of Brainbow mice fed a HF diet. Type of data set: in vivo, mouse. On the procedure: Brainbow (BB) B6.Cg-Tg(Thy1-Brainbow1.0)HLich/J mice were purchased from The Jackson Laboratory (n=7, females). 5-week old BB mice were fed a HF for 140 days. Then mice were randomly assigned into groups injected with PBS (n=3) and recombinant EFNA5 (n=4). Mice were individually housed for all treatment periods. Mice were injected into both iAb fat depots with 100 μL PBS/iAb depot or with PBS containing recombinant EFNA5 (Life Technologies, 45 ng/mL) every other day for 1 month. Metabolic measurements were performed. WAT were collected for protein, mRNA, and histology.
Metabolic parameters were measured by indirect calorimetry (CLAMS, Columbus Instruments, Columbus, OH) at ambient temperature (22° C.) with 12 h light/dark cycles. Animals were fed the same HF diet and water was provided ad libitum. Mice were placed individually and allowed to acclimatize in the chambers for 12 h. Oxygen consumption, CO2 production, energy expenditure, and locomotor activity were measured for at least 24 h. […] For cold exposure the temperature was changed to 4° C. for 6 h.
Cell/tissue protein lysates normalized by protein content (BCA, ThermoFisher). Medium was collected from cells plated at similar numbers. Protein lysate or medium were separated on 10% acrylamide gel under reducing conditions. After transfer to a polyvinylidene fluoride membrane (Immobilon-P; Millipore), proteins were analyzed using an Odyssey Infrared Imaging System (LI-COR Biosciences). Peripherin and tyrosine hydroxylase polyclonal rabbit antibodies (Abcam, Cambridge, MA) were used at 1:1000 dilution.

In another data set the test system is DRG neurons. The data set is described as follows: Neurite outgrowth of DRG neurons (ArrayScan XTI, Neuronal Profiling algorithm). Conditions: recombinant EFNA5 30 ng/mL, 24 hours. It counts as cell-based, mouse. The method, then:
Single cell suspensions from cervical, thoracic, and lumbar DRG neurons were isolated from terminally anesthetized C57BL/6 adult female mice (12-16 weeks old, The Jackson Laboratory). Dissected DRGs were enzymatically digested in a solution of collagenase type 2 (200 U/mL; Sigma, St. Louis, MO) and dispase I (5 U/mL; Sigma) on a shaker for 45 min at 37° C. (Davies et al., 1999). Enzyme solution was aspirated and cells were washed twice in Hank's Balanced Salt Solution 1× (HBSS; Mediatech Inc., Manassas, VA) before incubating in DNase I type II (5 mg/mL; Worthington Biochemical, Lakewood, NJ) for 5 min at room temperature. […] The neuron-enriched pellet was resuspended in DRG culture medium (DMEM/F12, 1% N2 supplement, and 0.05% Gentamicin) and live cells were counted on a hemocytometer using trypan blue exclusion. […] Cells were automatically imaged using a Thermo Scientific™ ArrayScan™ XTI Live High Content microscope and analyzed with the Neuronal Profiling algorithm (ThermoFisher) (Lerch et al., 2014). Total neurite length, average neurite length, number of branch points, critical value, dendrite maximum, and ramification index were averaged across all neurons detected per well, with 3 wells included per treatment. […] Dendrite maximum and critical value are parameters determined based on Scholl analysis, and are automatically generated by the software. […]

The next data set deals with 3T3-L1 adipocytes. In words: Thermogenic gene expression in 3T3-L1 adipocytes (TaqMan / RT-PCR). Type of data set: cell-based, mouse. Conditions: recombinant EFNA5 10 ng/mL, 4 days. The method, then:
FIGS. 9A to 9D show DRG neurons (500 neurons per well) cultured in DRG culture medium only, or DRG culture medium with NT-3 (1 ng/mL), with NGF (10 ng/mL), with WT secretome (1/1, v/v), or with Aldh1a1^−/− secretome (1/1, v/v) for 24 hours. WT and Aldh1a1^−/− adipocytes differentiated for 5 days. Secretome is the media collected from these cells for 24 h. Neurite outgrowth parameters were assayed using the Thermo Scientific™ ArrayScan™ XTI Live High Content microscope and analyzed with the Neuronal Profiling Algorithm (ThermoFisher). Nine independent experiments were performed using DRG from three mice. Each DRG batch was analyzed in triplicate. Data are shown as mean±SD obtained with one DRG batch. Asterisks indicate P<0.05 between different groups; Mann-Whitney U test. FIG. 9A: Representative images show ~25% of area used for the automatic quantification of neuronal parameters in FIG. 3 per one condition. […] FIG. 9B: Secreted EFNA5 levels in the medium from 3T3-L1 preadipocytes and adipocytes differentiated for 4d were analyzed by ELISA. FIG. 9C: Basal metabolic rate (heat) was measured in PBS- and EFNA5-injected mice from Table 1, Study 4 by an open circuit indirect calorimetry treadmill. […] Expression was measured by RT-PCR and normalized by 18S.
FIGS. 11A to 11I show adipokine Ereg is bilaterally associated with obesity and thermogenesis and activates PPARα. […] FIG. 11B: Ereg expression was measured in non-differentiated and differentiated (day 5) 3T3-L1 adipocytes (Mann-Whitney test) using a customized NanoString mouse panel. FIG. 11C: Ereg expression was measured in differentiated (day 5) 3T3-L1 and Aldh1a1^−/− adipocytes by Taqman and normalized to TATA box protein (TBP). FIG. 11D: Plasma EREG concentrations were measured in mice from Study 1 by western blot. […] FIG. 11E: Plasma EREG concentrations were measured and quantified in iAb of WT and ob/ob mice from Study 2 by western blot (n=5 per each group). […] FIG. 11F: EREG was measured in iAb, subcutaneous and brown fat by western blot. […] Expression level were measured by Taqman and normalized by TBP. […]
(Real-time PCR tracks product formation cycle by cycle.)

[3] abbreviates: Study 5, BB mice, HF diet, EA5 vs PBS.

Non-standard residues stand in square brackets, D forms with d. Residues, ends and D or L forms follow the SMILES beside them. ξ: configuration not given here. *: point of attachment. Succinyl(20-O-(20S)-CPT) = CC[C@@]1(OC(=O)CCC(=O)*)C(=O)OCc2c1cc1n(c2=O)Cc2cc3ccccc3nc2-1; Fmoc = O=C(OCC1c2ccccc2-c2ccccc21)*; ξK = NCCCCC(N)C(=O)O; Bz = O=C(c1ccccc1)*; ξC = NC(CS)C(=O)O

As for `CC[C@@]1(OC(=O)CCC(=O)NC(CS)C(=O)NC(CS)C(=O)NC(CCCCN)C(=O)NC(CCCCN)C(N)=O)C(=O)OCc2c1cc1n(c2=O)Cc2cc3ccccc3nc2-1` (stereo partly drawn) [CPT-CCKK] ({Succinyl(20-O-(20S)-CPT)}-[ξC][ξC][ξK][ξK]-NH2), the “less cytotoxic than parental drug CPT” value with NCI-H23 (H23 cell lines) was “roughly 3 folds”.
For the molecule Fmoc-KK(SucBz) [nanoscaffold #1], in the data set on 3T3-L1 cells, the “cytotoxicity (LDH release)” value is reported as “not toxic”.
Turning to `CC[C@@]1(O)C(=O)OCc2c1cc1n(c2=O)Cc2cc3ccccc3nc2-1` [CPT, Camptothecin], the IC50 (commonly the concentration at which inhibition is half-maximal) was 200 nM with A549 (96 h MTT, experiment with non-oxidized nanotube (FIG. 36A)); around 830 nM with A549 (experiment with crosslinked nanotubes (FIG. 36B)); 270 nM in the data set with NCI-460 (NCI-460, 96 h MTT, experiment with non-oxidized nanotube (FIG. 36A)); 350 nM in the data set with NCI-460 (H460, experiment with crosslinked nanotubes (FIG. 36B)); 190 nM in the data set with NCI-H23 (Homo sapiens, NCI-H23, 96 h MTT, experiment with non-oxidized nanotube (FIG. 36A)).
On to `NCCCC[C@H](NC(=O)OCC1c2ccccc2-c2ccccc21)C(=O)N[C@@H](Cc1ccccc1)C(=O)N[C@@H](CCCCN)C(=O)N[C@@H](CCCCNC(=O)c1ccccc1)C(N)=O` [Fmoc-KFKK(Bz)-NH2] (Fmoc-KFKK(Bz)-NH2), for which the “cytotoxic efficacy against human colorectal cell line” value in data set [1] is recorded as “no efficacy”.
For the molecule `CCN(CC)c1ccc2cc(C(=O)NCCCC[C@H](NC(=O)[C@H](CCCCN)NC(=O)OCC3c4ccccc4-c4ccccc43)C(N)=O)c(=O)oc2c1` [nanoscaffold #2, Fmoc-KK(DAC)], the “cytotoxicity (LDH release)” value with 3T3-L1 cells is on record as “not toxic”.

B1: EFNA5: recombinant ephrin-A5 ligand protein (protein)
chain: QDPGSKVVADRYAVYWNSSNPRFQRGDYHIDVCINDYLDVFCPHYEDSVPEDKTERYVLYMVNFDGYSACDHTSKGFKRWECNRPHSPNGPLKFSEKFQLFTPFSLGFEFRPGREYFYISSAIPDNGRRSCLKLKVFVRPTNSCMKTIGVHDRVFDVNDKVENSLEPADDTVHESAEPSRGEN
Turning to B1, the “metabolic rate on cold exposure” value in data set [2] (EFNA5- vs. PBS-injected mice, 4° C.) is listed as “increased”. For the same molecule, in data set [2] (EFNA5 vs. PBS, after 2 weeks of treatment, Western blot), the “tyrosine hydroxylase protein levels in WAT” value was “increased”. In addition, in data set [2] (setting [3]), the “Body Wt.” value is 28.7 ± 3.2 g, the “Brown Fat” value stood at 0.1 ± 0.03 g, the “Sub Fat” value turned out to be 1.0 ± 0.4 g and the “iAb Fat” value is 1.2 ± 0.5 g. Further, the “dendritic maximum and critical value in neurons” value with DRG neurons is listed as “increased”. Further, the “regulation of expression of thermogenic genes (Ucp1)” value in the data set with 3T3-L1 adipocytes was “no direct effect”.
